In patent US10705094B2, “TNF receptor signaling modulator assay” (UCB Biopharma SRL, priority 2015, dated 2020):

How the values were obtained:
h-TNFα = h-TNFα (Homo sapiens, UniProt P01375); assay: Monomer exchange in TNFα trimers by mass spectrometry, compound pre-incubated with human TNFα; format: binding; conditions: 18 hours; for off-rate from h-TNFα: 1:1 complex with h-TNFα mixed with m-TNFα; for cross species monomer subunit exchange: compound preincubated with h-TNFα, then m-TNFα added
Protocol: (§1) Human and mouse homotrimers of TNFα (H3 and M3 respectively) were incubated together and aliquots of the solution monitored by mass spectrometry appearance of the cross species heterotrimers. The mass spectrometric analysis confirmed that monomer exchange between native TNFα trimers was able to occur in solution. The exchange rate was slow and was monitored over a course of 4 hours before full equilibration was achieved (data not shown). The mechanism is unknown, although is it unlikely to involve formation of the dimeric forms as none of these were observed. Monomer exchange is likely to be occurring between pure human and mouse trimers, the mixing of mouse and human trimers simply makes this exchange visible by mass spectrometry.
In a second series of experiments an excess of the compound of formula (1) was incubated with Human TNFα, the excess compound of formula (1) was then removed. Mass Spectral analysis confirmed that a 1:1 complex had been formed between the compound of formula (1) and h-TNFα. Mouse TNFα was now added to this sample which was then subjected to mass spectral analysis over a number of hours. After 18 hours there was no observed change in the composition of the sample. […] In addition, there was no evidence of formation of the M3L species and no evidence of formation of the unligated H3 species.
These two experiments were then repeated with the compound of formula (2) instead of the compound of formula (1). The results when the compound of formula (2) was pre-incubated with h-TNFα to give a 1:1 complex and then mixed with unligated m-TNFα were the same as with the compound of formula (1).

m-TNFα = target: T1, m-TNFα (Mus musculus, UniProt P06804); assay: Monomer exchange in TNFα trimers by mass spectrometry, compound pre-incubated with mouse TNFα; format: binding; conditions: for off-rate from m-TNFα: 1:1 complex with m-TNFα mixed with h-TNFα; for cross species monomer subunit exchange: compound preincubated with m-TNFα, then h-TNFα added
T1 sequence (P06804 80-235 limits assumed): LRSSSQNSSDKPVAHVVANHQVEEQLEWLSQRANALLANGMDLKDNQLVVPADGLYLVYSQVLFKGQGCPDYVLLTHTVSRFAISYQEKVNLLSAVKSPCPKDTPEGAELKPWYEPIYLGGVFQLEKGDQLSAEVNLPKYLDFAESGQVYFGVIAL
Protocol: as §1
The experiment was then repeated in reverse. Excess compound of formula 1 was incubated with Mouse TNFα, the excess compound of formula (1) was then removed. Mass Spectral analysis confirmed that a 1:1 complex had been formed between the compound of formula (1) and m-TNFα. Human TNFα was now added to this sample which was then subjected to mass spectral analysis over a number of hours. […] In addition there was evidence of formation of the ligated human homotrimer (H3L), the unligated mouse homotrimer (M3) and for unbound compound of formula (1) (L). […] Once this complex (M3L) has dissociated, monomer subunit exchange between the H3 and M3 species proceeds and the liberated ligand is then able to form complexes with all 4 trimer species present in solution.

[1] = test system: hTNFα-induced neutrophil recruitment; assay: Neutrophil recruitment in mice, compound pre-mixed with hTNFα and injected i.p.; format: in vivo, Balb/c mice; conditions: for effect of compound alone on neutrophil recruitment: compound only mice, no TNFα; for neutrophil recruitment versus TNFα in the absence of the compound: sample 1, ratio compound:TNFα 0.1:1, i.p.; for neutrophil recruitment versus TNFα in the absence of the compound / inhibition of neutrophil recruitment: 2 h
Protocol: In separate studies, compounds of formula (1) and formula (2) were mixed with 20 μM solutions of TNFα dissolved in phosphate buffered saline (PBS) to a concentration of 2 μM, 20 μM and 200 μM. The ratio of each compound to TNFα was, therefore, 0.1:1 (sample 1), 1:1 (sample 2) and 10:1 (sample 3). […] This process separates protein bound compound and free compound. A control sample containing PBS only was processed in the same way to provide a vehicle control for the study. The concentration of eluted protein was determined using a Nanodrop (ND-1000). The TNFα:compound complexes were diluted in PBS to a concentration for injection of 0.03 μg/kg.
For the study, typically, each group contained 10 male Balb/c mice (Charles River) apart from an anti-human TNFα antibody positive control, which used a set of 5 mice.
Compound only mice were also included in the study to assess the effect of compound on neutrophil recruitment.
All mice were killed by cervical dislocation two hours post-injection of hTNFα (t=2 h) and the peritoneal cavity was lavaged with 3 mL of FACS buffer (500 mL PBS containing 2 g bovine serum albumin, 6 mL HEPES buffer and […]). Lavage fluid was aspirated and neutrophil numbers were assessed by staining cells with anti-Gr1 PE and anti-CD45 FITC by FACS as detailed below.
100 μL of lavage fluid from each sample was aliquoted into FACS tubes. A FACS cocktail was made up using anti-GR-1 PE (BD cat #553128 Lot #75542) at 1 in 39 dilution and anti-CD45 FITC (BD cat #553080 Lot #80807) at 1 in 19 dilution in FACS buffer. Fc block (BD Cat #553142 Lot #87810) was prepared 1 in 10 with FACS buffer and 10 μL added to each sample 5 minutes before adding the antibody cocktail. […] Samples were then left for 20 mins on ice. 1 mL of FACS Lyse solution (BD Cat #349202 Lot #29076, diluted 1:10 in dH2O) was added to each tube, mixed and left at room temperature for 5 minutes. 1 mL of FACS Buffer was then added to each tube and centrifuged at 400 g for 5 minutes. The FACS buffer was then carefully poured off and the tip of the tube dabbed on absorbent paper to leave the tube completely dry. Then […] of 1 in 10 Reference Bead solution (Sigma cat # P2477 Lot #116K1612) diluted in FACS buffer was added to each tube.
Samples were analysed using FACScalibur II and FloJo software.

h-TNFα, sequence (P01375 77-233 limits assumed): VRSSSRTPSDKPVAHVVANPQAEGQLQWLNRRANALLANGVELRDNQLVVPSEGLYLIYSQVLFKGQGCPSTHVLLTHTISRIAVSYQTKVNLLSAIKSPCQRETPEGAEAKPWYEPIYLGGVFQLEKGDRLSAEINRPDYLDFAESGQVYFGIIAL

| SMILES | off-rate from h-TNFα (h-TNFα) | cross species monomer subunit exchange (h-TNFα) | off-rate from m-TNFα (m-TNFα) | cross species monomer subunit exchange (m-TNFα) | effect of compound alone on neutrophil recruitment [1] | neutrophil recruitment versus TNFα in the absence of the compound [1] | inhibition of neutrophil recruitment ([1]; sample 2, ratio compound:TNFα 1:1, i.p.) | inhibition of neutrophil recruitment ([1]; sample 3, ratio compound:TNFα 10:1, i.p.) |
| --- | --- | --- | --- | --- | --- | --- | --- | --- |
| Cc1ccc(C)c(Cn2c(C(O)c3ccncc3)nc3ccccc32)c1 (centres unmarked) [Compound (1), [1-(2,5-Dimethylbenzyl)-1H-benzimidazol-2-yl](pyridin-4-yl)methanol] | no measurable off-rate | no cross species monomer subunit exchange was observed | measurable off-rate | did not prevent monomer subunit exchange | negligible effect | not significantly different | 86% | 85% |
| Cc1ccc(C)c(Cn2c(C(O)c3ccncc3)nc3ccc(-c4cnn(C)c4)cc32)c1 (centres unmarked) [Compound (2), [1-(2,5-Dimethylbenzyl)-6-(1-methyl-1H-pyrazol-4-yl)-1H-benzimidazol-2-yl](pyridin-4-yl)methanol] | no measurable off-rate | No monomer subunit exchange was observed | no measurable off-rate | no monomer subunit exchange was observed | negligible effect | not significantly different |  |  |
